Experimental data: PubChem BioAssay AID330 (DTP/NCI, 2004)
Where “and” joins values, the source holds several entries; their conditions need not be identical. Equal values may be shown once. Toxic doses and inconclusive results are not listed. The calls were made as follows: active = survival T/C of 150% or more; inactive = T/C below 125% in these data.

System: P388 leukemia ip, CD2F1 mice, survival T/C
Assay: NCI In Vivo Anticancer Drug Screen. Data for tumor model P388 Leukemia (intraperitoneal) in CD2F1 (CDF1) mice
Settings: endpoint: median survival time, higher = longer survival
In short: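 Mice carrying the transplanted tumor received test compound or vehicle. Survival was recorded in each group, and the value is the treated-group measurement divided by that of the vehicle-treated control group.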

[1] = dose: 50.0 mg/kg/injection, schedule: Q01DX009 (ip), vehicle: saline
[2] = dose: 50.0 mg/kg/injection, schedule: Q01DX005 (ip), vehicle: Klucel (hydroxypropylcellulose) (HPC)
[3] = dose: 100.0 mg/kg/injection, schedule: Q01DX005 (ip), vehicle: Klucel (hydroxypropylcellulose) (HPC)
[4] = dose: 200.0 mg/kg/injection, schedule: Q01DX005 (ip), vehicle: Klucel (hydroxypropylcellulose) (HPC)
[5] = dose: 50.0 mg/kg/injection, schedule: Q01DX009 (ip), vehicle: saline with Tween-80
[6] = dose: 50.0 mg/kg/injection, schedule: Q01DX005 (ip), vehicle: saline with Tween-80
[7] = dose: 100.0 mg/kg/injection, schedule: Q01DX005 (ip), vehicle: saline with Tween-80
[8] = dose: 200.0 mg/kg/injection, schedule: Q01DX005 (ip), vehicle: saline with Tween-80
[9] = dose: 240.0 mg/kg/injection, schedule: Q01DX005 (ip), vehicle: Klucel (hydroxypropylcellulose) (HPC)
[10] = dose: 25.0 mg/kg/injection, schedule: Q01DX005 (ip), vehicle: Klucel (hydroxypropylcellulose) (HPC)
[11] = dose: 12.5 mg/kg/injection, schedule: Q01DX005 (ip), vehicle: saline with Tween-80
[12] = dose: 25.0 mg/kg/injection, schedule: Q01DX005 (ip), vehicle: saline with Tween-80
[13] = dose: 100.0 mg/kg/injection, schedule: Q01DX009 (ip), vehicle: saline with Tween-80
[14] = dose: 200.0 mg/kg/injection, schedule: Q01DX009 (ip), vehicle: saline with Tween-80

Measured: T/C

[I][Hg][CH2]C1Cc2ccccc2O1 (configuration not stated)
inactive: dose: 6.25 mg/kg/injection, schedule: Q01DX009 (ip), vehicle: saline 90 % of control | dose: 12.5 mg/kg/injection, schedule: Q01DX009 (ip), vehicle: saline 90 % of control | dose: 25.0 mg/kg/injection, schedule: Q01DX009 (ip), vehicle: saline 99 % of control | [1] 96 % of control

CCOC(=O)C1=NN(c2ccccc2)C(C(=O)OC)[C@@H]1C(=O)OC (some centres not stated)
inactive: dose: 60.0 mg/kg/injection, schedule: Q01DX005 (ip), vehicle: saline with Tween-80 99 % of control | dose: 120.0 mg/kg/injection, schedule: Q01DX005 (ip), vehicle: saline with Tween-80 98 % of control | dose: 240.0 mg/kg/injection, schedule: Q01DX005 (ip), vehicle: saline with Tween-80 96 % of control

CC(=O)/C(=C(\c1ccccc1)N1CCOCC1)N1CCOCC1
inactive: [2] 99 % of control | [3] 100 % of control | [4] 107 % of control

Cc1cccc(C)c1NC(=O)NNC(N)=S
inactive: [5] 97 % of control

CCCn1c(CC)nc2c(cnn2C)c1=O
inactive: [2] 101 % of control | [3] 101 % of control | [4] 101 % of control

C/C(=N\NC(=S)Nc1cccc(F)c1)c1ccccn1
inactive: [6] 109 % of control | [7] 112 % of control | [8] 119 % of control

CC1/C(=N/Nc2ccc([N+](=O)[O-])cc2)CC2C3(C)CCC2(C(C)C(=O)O)C(=O)C13 (configuration not stated)
inactive: dose: 25.0 mg/kg/injection, schedule: Q04DX003 (ip), vehicle: Klucel (hydroxypropylcellulose) (HPC) 92 % of control | dose: 50.0 mg/kg/injection, schedule: Q04DX003 (ip), vehicle: Klucel (hydroxypropylcellulose) (HPC) 94 % of control | dose: 100.0 mg/kg/injection, schedule: Q04DX003 (ip), vehicle: Klucel (hydroxypropylcellulose) (HPC) 88 % of control and 94 % of control | dose: 400.0 mg/kg/injection, schedule: Q04DX003 (ip), vehicle: Klucel (hydroxypropylcellulose) (HPC) 90 % of control

Cc1cc(OCC(=O)N/N=C/c2ccc(N(CCCl)CCCl)cc2)c2c(=O)c3ccccc3oc2c1
inactive: dose: 60.0 mg/kg/injection, schedule: Q01DX005 (ip), vehicle: Klucel (hydroxypropylcellulose) (HPC) 94 % of control | dose: 120.0 mg/kg/injection, schedule: Q01DX005 (ip), vehicle: Klucel (hydroxypropylcellulose) (HPC) 117 % of control | [9] 88 % of control

COc1cc(C(=O)n2c(=O)oc(=O)c3cc([N+](=O)[O-])ccc32)cc(OC)c1OC
inactive: dose: 60.0 mg/kg/injection, schedule: Q01DX005 (ip), vehicle: saline 101 % of control | dose: 120.0 mg/kg/injection, schedule: Q01DX005 (ip), vehicle: saline 94 % of control | dose: 240.0 mg/kg/injection, schedule: Q01DX005 (ip), vehicle: saline 89 % of control

CC1OC(O[C@@H]2OC=C(C=O)[C@@]3(O)CC[C@H](C)[C@@H]23)C(O)C(O)C1O (some centres not stated)
inactive: dose: 6.25 mg/kg/injection, schedule: Q01DX005 (ip), vehicle: Klucel (hydroxypropylcellulose) (HPC) 100 % of control | dose: 12.5 mg/kg/injection, schedule: Q01DX005 (ip), vehicle: Klucel (hydroxypropylcellulose) (HPC) 116 % of control | [10] 95 % of control | [2] 87 % of control

COc1cc2c(cc1OC)[C@H](c1cc(Br)c(O)c(OC)c1)[C@H]1C(=O)OCC1C2 (some centres not stated)
inactive: [11] 87 % of control | [12] 92 % of control | [6] 92 % of control | [7] 88 % of control | [8] 89 % of control

CCCSCC(C)C
inactive: [5] 100 % of control | [13] 100 % of control | [14] 109 % of control

COC(CNCC(OC)OC)OC
inactive: dose: 3.13 mg/kg/injection, schedule: Q01DX009 (ip), vehicle: water 96 % of control | dose: 6.25 mg/kg/injection, schedule: Q01DX009 (ip), vehicle: water 102 % of control | dose: 12.5 mg/kg/injection, schedule: Q01DX009 (ip), vehicle: water 95 % of control | dose: 25.0 mg/kg/injection, schedule: Q01DX009 (ip), vehicle: water 102 % of control | dose: 50.0 mg/kg/injection, schedule: Q01DX009 (ip), vehicle: water 93 % of control | dose: 100.0 mg/kg/injection, schedule: Q01DX009 (ip), vehicle: water 104 % of control

Cc1ncc(N)c2c1OC(C)(C)OC2
inactive: [11] 102 % of control | [12] 103 % of control | [6] 99 % of control and 101 % of control

Oc1ccccc1N=Cc1cccs1
inactive: dose: 50.0 mg/kg/injection, schedule: Q01DX009 (ip), vehicle: Klucel (hydroxypropylcellulose) (HPC) 109 % of control | dose: 100.0 mg/kg/injection, schedule: Q01DX009 (ip), vehicle: Klucel (hydroxypropylcellulose) (HPC) 105 % of control | dose: 200.0 mg/kg/injection, schedule: Q01DX009 (ip), vehicle: Klucel (hydroxypropylcellulose) (HPC) 124 % of control

CC(=O)C(=Cc1ccc(Cl)cc1)C(C)=O
inactive: [6] 97 % of control | [7] 101 % of control

CCCCCCCC[As](CCCCCCCC)SCC1OC(OC(C)=O)C(OC(C)=O)C(OC(C)=O)C1OC(C)=O (configuration not stated)
inactive: [5] 101 % of control | [13] 96 % of control | [14] 99 % of control

COc1cccc2c1C(=O)c1c(O)c3c(c(O)c1C2=O)CC(O)(C(=O)COc1ccccc1)CC3OC1CC(NC(=O)C(F)(F)F)C(O)C(C)O1 (configuration not stated)
inactive: dose: 1.56 mg/kg/injection, schedule: Q01DX009 (ip), vehicle: other 98 % of control and 102 % of control | dose: 3.13 mg/kg/injection, schedule: Q01DX009 (ip), vehicle: other 102 % of control and 110 % of control | dose: 12.5 mg/kg/injection, schedule: Q01DX009 (ip), vehicle: other 105 % of control | dose: 25.0 mg/kg/injection, schedule: Q01DX009 (ip), vehicle: other 114 % of control

CC(C)N1NC1(C)C (configuration not stated)
inactive: [6] 107 % of control | [7] 107 % of control | [8] 100 % of control

CC1(C)CC2C1(O)CCC1(C)C(O)C=CC21CO (configuration not stated)
inactive: dose: 6.0 mg/kg/injection, schedule: Q01DX005 (ip), vehicle: Klucel (hydroxypropylcellulose) (HPC) 98 % of control | dose: 12.0 mg/kg/injection, schedule: Q01DX005 (ip), vehicle: Klucel (hydroxypropylcellulose) (HPC) 95 % of control | dose: 24.0 mg/kg/injection, schedule: Q01DX005 (ip), vehicle: Klucel (hydroxypropylcellulose) (HPC) 100 % of control | [10] 93 % of control | dose: 48.0 mg/kg/injection, schedule: Q01DX005 (ip), vehicle: Klucel (hydroxypropylcellulose) (HPC) 90 % of control | [2] 93 % of control | [3] 90 % of control

CCOC(=O)C(C)c1ccccc1 (configuration not stated)
inactive: [1] 96 % of control | dose: 100.0 mg/kg/injection, schedule: Q01DX009 (ip), vehicle: saline 105 % of control | dose: 200.0 mg/kg/injection, schedule: Q01DX009 (ip), vehicle: saline 99 % of control

CC(C)C(OCc1ccccc1)C(=O)O (configuration not stated)
inactive: dose: 50.0 mg/kg/injection, schedule: Q01DX009 (ip), vehicle: alcohol 88 % of control | dose: 100.0 mg/kg/injection, schedule: Q01DX009 (ip), vehicle: alcohol 98 % of control | dose: 200.0 mg/kg/injection, schedule: Q01DX009 (ip), vehicle: alcohol 104 % of control

CC(C)c1cccc(C(C)C)c1NC(=O)Nc1cccc(C(F)(F)F)c1
inactive: dose: 15.0 mg/kg/injection, schedule: Q01DX005 (ip), vehicle: Klucel (hydroxypropylcellulose) (HPC) 88 % of control | dose: 30.0 mg/kg/injection, schedule: Q01DX005 (ip), vehicle: Klucel (hydroxypropylcellulose) (HPC) 93 % of control | [9] 88 % of control

O=c1[nH]c2cc([N+](=O)[O-])ccc2nc1/C=C(\O)c1ccc([N+](=O)[O-])cc1
inactive: dose: 60.0 mg/kg/injection, schedule: Q01DX005 (ip), vehicle: Klucel + Tween-80 87 % of control | dose: 120.0 mg/kg/injection, schedule: Q01DX005 (ip), vehicle: Klucel + Tween-80 86 % of control | dose: 240.0 mg/kg/injection, schedule: Q01DX005 (ip), vehicle: Klucel + Tween-80 90 % of control
